Laboratory results published in US4740233A, “Substituted 1,2,4-triazolo[1,5-a]-pyrimidine-2-sulfonamides and compositions and methods of controlling undesired vegetation and suppressing the nitrification of ammonium nitrogen in soil” (The Dow Chemical Company, priority 1986, dated 1988).

Assays:
yellow foxtail = assay: Postemergent control of plant species; assay type: in vivo, Setaria lutescens; conditions: Setaria, post-emergence, 336 h, read-out: percent postemergent control
Summary of the method: (§1)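 Each compound is dissolved in acetone, mixed with an equal volume of 0.1% surfactant water, and sprayed on plants grown to 2-4 leaves in nutrient soil. Treated and untreated beds sit under identical greenhouse temperature and light for roughly two weeks before growth reduction is rated.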

crabgrass = assay: Postemergent control of plant species; assay type: in vivo, Digitaria spp.; conditions: Digitaria sanguinalis, post-emergence, 336 h, read-out: percent postemergent control
Summary of the method: as §1

wheat = assay: Postemergent control of plant species; assay type: in vivo, Triticum aestivum; conditions: Triticum aestivum, post-emergence, 336 h, read-out: percent postemergent control
Summary of the method: as §1

corn = assay: Postemergent control of plant species; assay type: in vivo, Zea mays; conditions: Zea mays, post-emergence, 336 h, read-out: percent postemergent control
Summary of the method: as §1

jimsonweed = assay: Postemergent control of plant species; assay type: in vivo, Datura stramonium; conditions: Datura stramonium, post-emergence, 336 h, read-out: percent postemergent control
Summary of the method: as §1

yellow nutsedge [1] = assay: Postemergent control of plant species; assay type: in vivo, Cyperus esculentus; conditions: Cyperus, post-emergence, 336 h, read-out: percent postemergent control
Summary of the method: as §1

johnson grass = assay: Postemergent control of plant species; assay type: in vivo, Sorghum halepense; conditions: Sorghum halepense, post-emergence, 336 h, read-out: percent postemergent control
Summary of the method: as §1

barnyardgrass [2] = assay: Postemergent control of plant species; assay type: in vivo, Echinochloa crusgalli; conditions: Echinochloa crus-galli, post-emergence, 336 h, read-out: percent postemergent control
Summary of the method: as §1

sprangletop = assay: Control of aquatic plant species (paddy water); assay type: in vivo, Leptochloa filiformis; conditions: Leptochloa filiformis, 216 h, nine days, read-out: Percent control
Summary of the method: (§2)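 First, young plants (1-2 inch stage) were set into about 2 inches of soil. Next, pots were flooded to about 1 inch depth. Then acetone concentrate was injected into the water at varying volumes to give the intended concentration. Finally, control was assessed after nine days.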

barnyardgrass [3] = assay: Control of aquatic plant species (paddy water); assay type: in vivo, Echinochloa crusgalli; conditions: Echinochloa crus-galli, 216 h, nine days, read-out: Percent control
Procedure: In testing for such utility, the plant species to be tested were transplanted into 16 oz. containers into about 2 inches of soil when they were in the 1-2 inch stage and then flooded to a depth of about 1 inch. An acetone concentrate of the chemical to be tested was then injected into the paddy water, the volume injected being varied as desired to provide the desired concentration. Percent control was evaluated nine days after application.

[4] = test system: nitrification of ammonium nitrogen; assay: Suppression of nitrification of ammonium nitrogen in soil; conditions: 27° C.
Summary of the method: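 Soil (20 g) moistened to its 1/3 bar tension value, mixed with test chemical and incubated sealed for two weeks at 27° C. Nitrate extracted with ammonium sulfate solution and measured by nitrate-specific ion electrode; value given as % NH4-N remaining.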

sugar beet = assay: Postemergent control of plant species; assay type: in vivo, Beta saccharifera; conditions: Beta vulgaris, post-emergence, 336 h, read-out: percent postemergent control
Summary of the method: as §1

soybean = assay: Postemergent control of plant species; assay type: in vivo, Glycine max.; conditions: Glycine max, post-emergence, 336 h, read-out: percent postemergent control
Summary of the method: as §1

cocklebur = assay: Postemergent control of plant species; assay type: in vivo, Xanthium spp.; conditions: Xanthium strumarium, post-emergence, 336 h, read-out: percent postemergent control
Summary of the method: as §1

rice [5] = assay: Postemergent control of plant species; assay type: in vivo, Oryza sativa; conditions: Oryza sativa, post-emergence, 336 h, read-out: percent postemergent control
Summary of the method: as §1

rice [6] = assay: Control of aquatic plant species (paddy water); assay type: in vivo, Oryza sativa; conditions: Oryza sativa, 216 h, nine days, read-out: Percent control
Summary of the method: as §2

pigweed = assay: Postemergent control of plant species; assay type: in vivo, Amaranthus spp.; conditions: Amaranthus retroflexus, post-emergence, 336 h, read-out: percent postemergent control
Summary of the method: as §1

rape = assay: Postemergent control of plant species; assay type: in vivo, Brassica napus; conditions: Brassica napus, post-emergence, 336 h, read-out: percent postemergent control
Summary of the method: as §1

yellow nutsedge [7] = assay: Control of aquatic plant species (paddy water); assay type: in vivo, Cyperus esculentus; conditions: Cyperus, 216 h, nine days, read-out: Percent control
Summary of the method: as §2

wild oats = assay: Postemergent control of plant species; assay type: in vivo, Avena fatua; conditions: Avena fatua, post-emergence, 336 h, read-out: percent postemergent control
Summary of the method: as §1

sorghum = assay: Postemergent control of plant species; assay type: in vivo, Sorghum vulgare; conditions: Sorghum, post-emergence, 336 h, read-out: percent postemergent control
Summary of the method: as §1

cotton = assay: Postemergent control of plant species; assay type: in vivo, Gossypium spp.; conditions: Gossypium hirsutum, post-emergence, 336 h, read-out: percent postemergent control
Summary of the method: as §1

velvetleaf = assay: Postemergent control of plant species; assay type: in vivo, Abutilon theophrasti; conditions: Abutilon theophrasti, post-emergence, 336 h, read-out: percent postemergent control
Summary of the method: as §1

annual morning glory = assay: Postemergent control of plant species; assay type: in vivo, Ipomoea spp.; conditions: Ipomoea, post-emergence, 336 h, read-out: percent postemergent control
Summary of the method: as §1

| Structure (SMILES) | pest or weed control at 500 ppm (yellow foxtail) | pest or weed control at 500 ppm (crabgrass) | plant injury at 500 ppm (wheat) | plant injury at 500 ppm (corn) | pest or weed control at 500 ppm (jimsonweed) | pest or weed control at 500 ppm (yellow nutsedge [1]) | pest or weed control at 500 ppm (johnson grass) | pest or weed control at 500 ppm (barnyardgrass [2]) | % NH4-N Remaining After 2 Weeks Incubation ([4]; 0.01 ppm) | % NH4-N Remaining After 2 Weeks Incubation ([4]; 0.1 ppm) | % NH4-N Remaining After 2 Weeks Incubation ([4]; 1 ppm) | % NH4-N Remaining After 2 Weeks Incubation ([4]; 10 ppm) | plant injury at 500 ppm (sugar beet) | plant injury at 500 ppm (soybean) | pest or weed control at 500 ppm (cocklebur) | plant injury at 500 ppm (rice [5]) | pest or weed control at 500 ppm (pigweed) | plant injury at 500 ppm (rape) | pest or weed control at 500 ppm (wild oats) | plant injury at 500 ppm (sorghum) | further results |
| --- | --- | --- | --- | --- | --- | --- | --- | --- | --- | --- | --- | --- | --- | --- | --- | --- | --- | --- | --- | --- | --- |
| Cc1cc(C)n2nc(S(=O)(=O)Nc3cccc(Cl)c3)nc2n1 [Compound 17] | 20% | 0% | 0% | 20% | 0% | 0% | 60% | 0% | 0% | 1% | 38% | 80% | 10% | 15% | 10% | 0% | 50% | 70% | 0% | 40% | pest or weed control at 4000 g/ha (sprangletop; 4.0 Kg/Ha): 0%; pest or weed control at 4000 g/ha (barnyardgrass [3]; 4.0 Kg/Ha): 40%; pest or weed control at 4000 g/ha (rice [6]; 4.0 Kg/Ha): 97%; pest or weed control at 4000 g/ha (yellow nutsedge [7]; 4.0 Kg/Ha): 90%; plant injury at 500 ppm (cotton): 15%; pest or weed control at 500 ppm (velvetleaf): 70%; pest or weed control at 500 ppm (annual morning glory): 0% |
| COc1ccccc1NS(=O)(=O)c1nc2nc(C)cc(C)n2n1 [Compound 4] | 0% | 20% | 0% | 0% | 60% | 0% | 80% | 0% | 0% | 0% | 38% | 71% | 70% | 40% | 40% | 40% | 0% | 40% | 0% | 40% | pest or weed control at 2000 g/ha (sprangletop; 2.0 Kg/Ha): 45%; pest or weed control at 2000 g/ha (barnyardgrass [3]; 2.0 Kg/Ha): 95%; pest or weed control at 2000 g/ha (rice [6]; 2.0 Kg/Ha): 90%; pest or weed control at 2000 g/ha (yellow nutsedge [7]; 2.0 Kg/Ha): 80%; plant injury at 500 ppm (cotton): 10%; pest or weed control at 500 ppm (velvetleaf): 60%; pest or weed control at 500 ppm (annual morning glory): 0% |
